Assay results from ChEMBL document CHEMBL4373716, “Curcumin as tyrosine kinase inhibitor in cancer treatment” (Eur J Med Chem, 2019).
In brackets after ≈: the same amount, converted by molar mass.

Legend:
[1] = Tmax in human at […], po after 3 months; assay type: ADME, organism-based; details: in vivo
[2] = Cmax in human at […], po after 3 months; assay type: ADME, organism-based; set-up: route oral; details: in vivo
[3] = Aqueous solubility of the compound; assay type: physicochemical

Tmax [1]: 1 to 2 h
Cmax [2]: 1770 nM
solubility [3]: 1000 to 10000 µg/mL (≈ 2.71 to 27.1 mM)
SMILES: COc1cc(/C=C/C(=O)CC(=O)/C=C/c2ccc(O)c(OC)c2)ccc1O [CURCUMIN]
